{"source": "paper PMC5299038", "about": "(Structure (London, England : 1993), 2017)", "key": {"[1]": {"molecular_target": "TpCADE (Trueperella pyogenes, UniProt Z9JAQ5MWQ7)", "experiment": "coupled glucose oxidase assay", "assay_type": "biochemical", "settings": "hydrolysis of the alpha-1,3-linkages"}, "[2]": {"system": "TpCADE", "settings": "hydrolysis of the alpha-1,3-linkages"}}}
{"substance": "cycloalternan", "values": [{"measurement": "Km", "setting": "[1]", "result": "2.1 ± 0.2", "unit": "mM"}, {"measurement": "Km", "setting": "[2]", "result": "9.3 ± 1.5", "unit": "mM"}]}
